Laboratory results taken from patent US10422803B2, “Light-activated cation channel and uses thereof” (The Board of Trustees of the Leland Stanford Junior …, priority 2005, dated 2019).

Tested on: hippocampal neurons
Assay: Light-driven synaptic transmission from ChR2-expressing presynaptic neurons
Format: cell-based, rat
Experimental: Spiking was measured while injecting current to keep the voltage of the cell at approximately −65 mV (holding current ranging from 0 pA to 200 pA). For the synaptic transmission experiments, we patched nonfluorescent neurons near ChR2-expressing neurons, immersed in Tyrode solution containing either 20 μM gabazine to isolate just the excitatory postsynaptic response, or in 5 μM NBQX to isolate just the inhibitory postsynaptic response. To confirm whether the evoked potentials were indeed synaptically driven, after synaptic stimulation we blocked all postsynaptic receptors with solution containing both 20 μM gabazine and 5 μM NBQX, and rephotostimulated.

| SMILES | effect on light-driven inhibitory synaptic responses (GABAergic transmission blocker, FIG. 4(d)) | effect on light-driven excitatory synaptic responses (glutamatergic blocker, FIG. 4(c)) |
| --- | --- | --- |
| COc1ccc(-c2ccc(=N)n(CCCC(=O)O)n2)cc1 [gabazine] | abolishes these synaptic responses |  |
| NS(=O)(=O)c1cccc2c1c([N+](=O)[O-])cc1nc(O)c(O)nc12 [NBQX] |  | abolishes these synaptic responses |
